pEC50: −log10 of the molar value. In brackets after ≈: the same amount, converted by molar mass. Activity calls are given as the source filed them. No cut-off for these calls is given here.
Assays:
Zika virus [1] = test: Virucidal effect in ZIKV Argentine strain INEVH116141 strain assessed as inactivation of virus at 2.5 to 10 uM measured after 1.5 hrs incubation by viral inactivation assay; format: functional, organism-based; details: dose 2.5-10 µM
Zika virus [2] = test: Inhibition of ZIKV Argentine strain INEVH116141 infection in African green monkey Vero cells assessed as post-internalization (Post-INT) treated after 2 hr post infection measured after 24 hrs; format: functional
dengue virus type 2 [3] = test: Inhibition of DENV-2 Thailand/16681/1984 strain infection in African green monkey Vero cells assessed as internalization (INT) treated after 1 hr post infection measured after 24 to 48 hrs; format: functional; details: time 24-48 hrs
[4] = Metabolic stability in mouse liver microsomes assessed as half life at 3 uM in presence of NADPH by HPLC-MS analysis; format: ADME, Microsome
dengue virus type 2 [5] = test: Anti-viral activity against DENV-2 Thailand/16681/1984 strain infected in african green monkey Vero cells at 0.1 MOI assessed as reduction in fluorescence at 10 uM measured for first 8 hrs by plaque assay; format: functional, organism-based
Zika virus [6] = test: Anti-viral activity against ZIKV Argentine strain INEVH116141 infected in african green monkey Vero cells at 0.1 MOI assessed as reduction in virus yield measured after 48 hrs by virus reduction assay; format: functional, organism-based
dengue virus type 2 [7] = test: Anti-viral activity against DENV-2 Thailand/16681/1984 strain infected in african green monkey Vero cells at 0.1 MOI assessed as reduction in virus yield measured after 48 hrs by virus reduction assay; format: functional, organism-based; details: Thailand/16681/1984, Vero
Zika virus [8] = test: Anti-viral activity against ZIKV Argentine strain INEVH116141 infected in african green monkey Vero cells at 0.1 MOI assessed as reduction in […] at 10 uM measured for 10 to 12 hrs by plaque assay; format: functional, organism-based; details: time 10-12 hrs
Zika virus [9] = test: Anti-viral activity against ZIKV Argentine strain INEVH116141 infected in African green monkey Vero cells at 0.1 MOI assessed as reduction in viral titer at 10 uM pre-treated for 2 hrs before cellular infection followed by infection 1 hr incubated with compound free culture medium for 48 hrs; format: functional, organism-based
[10] = Solubility of the compound in simulated intestinal fluid (SIF,pH 6.8) incubated for 24 hrs by shake-flask method; format: ADME
[11] = Solubility of the compound in simulated gastric fluid (SGF,pH 1.2) incubated for 24 hrs by shake-flask method; format: ADME
dengue virus type 2 [12] = test: Inhibition of DENV-2 Thailand/16681/1984 strain infection in African green monkey Vero cells assessed as post-internalization (Post-INT) treated after 2 hr post infection measured after 48 hrs; format: functional
Zika virus [13] = test: Anti-viral activity against ZIKV Argentine strain INEVH116141 infected in african green monkey Vero cells assessed as reduction in genome level at 10 uM measured after 48 hrs by QRT-PCR analysis; format: functional, organism-based
[14] = Solubility of the compound in phosphate-buffered saline solution (PBS,pH 7.4) incubated for 24 hrs by shake-flask method; format: physicochemical
[15] = Permeability of the compound by PAMPA assay; format: ADME
dengue virus type 2 [16] = test: Anti-viral activity against DENV-2 Thailand/16681/1984 strain infected in African green monkey Vero cells at 0.1 MOI assessed as reduction in viral titer at 10 uM pre-treated for 2 hrs before cellular infection followed by infection 1 hr incubated with compound free culture medium for 48 hrs; format: functional, organism-based
[17] = Plasma stability in human plasma measured at 4 hrs; format: ADME, cell-free
[18] = Metabolic stability in mouse liver microsomes assessed as intrinsic clearance at 3 uM in presence of NADPH by HPLC-MS analysis; format: ADME, Microsome
dengue virus type 2 [19] = test: Anti-viral activity against DENV-2 Thailand/16681/1984 strain infected in African green monkey Vero cells at 0.1 MOI assessed as reduction in viral titer at 10 uM pre-treated for 4 hrs before cellular infection followed by infection 1 hr incubated with compound free culture medium for 48 hrs; format: functional, organism-based
dengue virus type 2 [20] = test: Anti-viral activity against DENV-2 Thailand/16681/1984 strain infected in african green monkey Vero cells at 0.1 MOI assessed as reduction in fluorescence at 10 uM measured after 48 hrs by epifluorescence microscopy; format: functional, organism-based
Zika virus [21] = test: Inhibition of ZIKV Argentine strain INEVH116141 infection in African green monkey Vero cells assessed as post-internalization (Post-INT) treated after 2 hr post infection measured after 48 hrs; format: functional
[22] = Selectivity index, ratio of CC50 for cytotoxicity against African green monkey Vero cells to EC50 for anti-viral activity against ZIKV Argentine strain INEVH116141; format: toxicity, cell-based; details: read-out: Selectivity Index
Zika virus [23] = test: Anti-viral activity against ZIKV Argentine strain INEVH116141 infected in african green monkey Vero cells at 0.1 MOI assessed as reduction in […] at 10 uM measured for first 8 hrs by plaque assay; format: functional, organism-based
Zika virus [24] = test: Inhibition of ZIKV Argentine strain INEVH116141 infection in African green monkey Vero cells assessed as absorption treated with compound for 1 hr during infection at 4 degC; format: functional, organism-based
dengue virus type 2 [25] = test: Virucidal effect in DENV-2 Thailand/16681/1984 strain assessed as inactivation of virus at 2.5 to 10 uM measured after 1.5 hrs incubation by viral inactivation assay; format: functional, organism-based; details: dose 2.5-10 µM
dengue virus type 2 [26] = test: Inhibition of DENV-2 Thailand/16681/1984 strain infection in African green monkey Vero cells assessed as absorption treated with compound for 1 hr during infection at 4 degC; format: functional, organism-based
Zika virus [27] = test: Anti-viral activity against ZIKV Argentine strain INEVH116141 infected in African green monkey Vero cells at 0.1 MOI assessed as reduction in viral titer at 10 uM pre-treated for 4 hrs before cellular infection followed by infection 1 hr incubated with compound free culture medium for 48 hrs; format: functional, organism-based
[28] = Metabolic stability in mouse liver microsomes assessed as degradation at 3 uM in presence of NADPH measured upto 45 mins by HPLC-MS analysis; format: ADME, Microsome; details: read-out: CLH
[29] = Plasma stability in human plasma measured after 24 hrs relative to control; format: ADME, cell-free; details: read-out: Activity
Zika virus [30] = test: Anti-viral activity against ZIKV Argentine strain INEVH116141 infected in african green monkey Vero cells at 0.1 MOI assessed as reduction in […] at 10 uM measured after 48 hrs by epifluorescence microscopy; format: functional, organism-based
dengue virus type 2 [31] = test: Anti-viral activity against DENV-2 Thailand/16681/1984 strain infected in african green monkey Vero cells assessed as reduction in genome level at 10 uM measured after 48 hrs by QRT-PCR analysis; format: functional, organism-based
[32] = Plasma stability in mouse plasma measured at 4 hrs; format: ADME, cell-free
Zika virus [33] = test: Inhibition of ZIKV Argentine strain INEVH116141 infection in African green monkey Vero cells assessed as internalization (INT) treated after 1 hr post infection measured after 24 hrs; format: functional
dengue virus type 2 [34] = test: Anti-viral activity against DENV-2 Thailand/16681/1984 strain infected in african green monkey Vero cells at 0.1 MOI assessed as reduction in fluorescence at 10 uM measured for 10 to 12 hrs by plaque assay; format: functional, organism-based; details: time 10-12 hrs
Zika virus [35] = test: Inhibition of ZIKV Argentine strain INEVH116141 infection in African green monkey Vero cells assessed as internalization (INT) treated after 1 hr post infection measured after 48 hrs; format: functional
dengue virus type 2 [36] = test: Inhibition of DENV-2 Thailand/16681/1984 strain infection in African green monkey Vero cells assessed as post-internalization (Post-INT) treated after 2 hr post infection measured after 24 hrs; format: functional
[37] = Selectivity index, ratio of CC50 for cytotoxicity against African green monkey Vero cells to EC50 for anti-viral activity against DENV-2 Thailand/16681/1984 strain; format: toxicity, cell-based; details: read-out: Selectivity Index
[38] = Cytotoxicity against African green monkey Vero cells assessed as cell viability measured after 72 hrs by MTT assay; format: toxicity, cell-based; details: chlorocebus sabaeus

SMILES: FC(F)(F)c1cc(NCc2ccc(Cl)cc2)nc(NCCN2CCCCC2)n1
- Activity (Zika virus [1]): inactive
- inhibition (INH) (Zika virus [2]): 44.86%
- inhibition (INH) (dengue virus type 2 [3]): <50%
- half-life at 3 µM [4]: 8.6 min
- Activity (dengue virus type 2 [5]): Active
- pEC50 (Zika virus [6]): 5.58
- pEC50 (dengue virus type 2 [7]): 5.94
- Activity (Zika virus [8]): Active
- Activity (Zika virus [9]): inactive
- solubility thermodynamic at 24 h [10]: 1690 µg/mL (≈ 4080 µM)
- solubility thermodynamic at 24 h [11]: 76 µg/mL (≈ 184 µM)
- inhibition (INH) (dengue virus type 2 [12]): 85.52%
- Activity (Zika virus [13]): Active
- solubility thermodynamic at 24 h [14]: 507 µg/mL (≈ 1230 µM)
- permeability [15]: Permeable
- Activity (dengue virus type 2 [16]): Active
- Stability [17]: Stable
- CLH [18]: 179 µL/min
- Activity (dengue virus type 2 [19]): Active
- Activity (dengue virus type 2 [20]): Active
- inhibition (INH) (Zika virus [21]): 43.7%
- selectivity ratio [22]: 9.13
- Activity (Zika virus [23]): Active
- inhibition (Zika virus [24]): inactive
- Activity (dengue virus type 2 [25]): inactive
- inhibition (dengue virus type 2 [26]): inactive
- Activity (Zika virus [27]): Active
- microsomal CLint at 3 µM [28]: 179 µL/min/mg
- remaining at 24 h [29]: 20%
- Activity (Zika virus [30]): Active
- Activity (dengue virus type 2 [31]): Active
- Stability [32]: Stable
- inhibition (INH) (Zika virus [33]): 26.36%
- Activity (dengue virus type 2 [34]): Active
- inhibition (INH) (Zika virus [35]): 29.22%
- inhibition (INH) (dengue virus type 2 [36]): 73.2%
- selectivity ratio [37]: 20.5
- CC50 at 72 h [38]: 23800 nM

Source: ChEMBL document CHEMBL5500381, “Antiviral drug discovery: Pyrimidine entry inhibitors for Zika and dengue viruses” (Eur J Med Chem, 2024)
